Activity calls are given as the source filed them. No cut-off for these calls is given here.
How the values were obtained:
[1] = tested on: Calvarial osteoblast; experiment: Induction of osteogenesis in mouse Osteoblast cells assessed as ALP activity at 0.001 to 100 uM measured for 24 to 48 hrs; format: functional; conditions: dose 0.001-100 µM, time 24-48 hrs
[2] = tested on: Calvarial osteoblast; experiment: Induction of osteogenesis in mouse Osteoblast cells assessed as ALP activity at 1 to 1000 pM measured for 24 to 48 hrs; format: functional, cell-based; conditions: dose 1-1000 pM, time 24-48 hrs
[3] = tested on: Calvarial osteoblast; experiment: Induction of osteogenesis in mouse Osteoblast cells assessed as ALP activity at 10 nM measured for 24 to 48 hrs; format: functional, cell-based; conditions: time 24-48 hrs
[4] = tested on: Calvarial osteoblast; experiment: Induction of osteogenesis in mouse Osteoblast cells assessed as fold increase in RUNX2 gene expression at 100 to 10000 pM by qRT-PCR analysis; format: functional; conditions: dose 100-10000 pM
[5] = tested on: Calvarial osteoblast; experiment: Induction of osteogenesis in mouse Osteoblast cells assessed as ALP activity at 0.001 to 100 uM measured for 48 hrs; format: functional, cell-based; conditions: dose 0.001-100 µM
[6] = tested on: Calvarial osteoblast; experiment: Induction of osteogenesis in mouse Osteoblast cells assessed as ALP activity at 0.001 to 100 uM measured for 24 hrs; format: functional, cell-based; conditions: dose 0.001-100 µM
[7] = tested on: Calvarial osteoblast; experiment: Cytotoxicity against mouse Osteoblast cells assessed as reduction in cell viability at 100 uM measured for 24 to 48 hrs by MTT assay; format: toxicity, cell-based; conditions: time 24-48 hrs
[8] = tested on: Calvarial osteoblast; experiment: Cytotoxicity against mouse Osteoblast cells assessed as reduction in cell viability at 0.000001 to 1 uM measured for 24 to 48 hrs by MTT assay; format: toxicity, cell-based; conditions: dose lower 1e-06 µM, time lower 24 hrs, dose upper 1 µM, time upper 48 hrs
[9] = tested on: Calvarial osteoblast; experiment: Induction of osteogenesis in mouse Osteoblast cells assessed as ALP activity at 100 pM measured for 48 hrs; format: functional, cell-based
[10] = tested on: Calvarial osteoblast; experiment: Induction of osteoblast differentiation in mouse calvarial osteoblasts cells assessed as ALP activity at 1 to 10000 pM measured for 7 days; format: functional, cell-based; conditions: dose 1-10000 pM, time 7.0 day
[11] = tested on: Calvarial osteoblast; experiment: Induction of osteogenesis in mouse Osteoblast cells assessed as ALP activity at 100 to 1000000 pM measured for 24 to 48 hrs; format: functional, cell-based; conditions: dose 100-1e+06 pM, time 24-48 hrs
[12] = Induction of osteoblast mineralization in mouse Bone marrow cells assessed as increase in mineralized nodule formation at 100 pM replaced with media every 48 hrs for 21 days by Alizarin Red staining-based microscopic analysis; format: functional, Bone marrow cell; conditions: time 21 day
[13] = Induction of osteoblast mineralization in mouse Bone marrow cells assessed as increase in mineralized nodule formation at 10 nM replaced with media every 48 hrs for 21 days by Alizarin Red staining-based microscopic analysis; format: functional, Bone marrow cell; conditions: time 21 day
[14] = tested on: Calvarial osteoblast; experiment: Induction of osteogenesis in mouse Osteoblast cells assessed as ALP activity at 10 nM measured for 48 hrs; format: functional, cell-based
[15] = tested on: Calvarial osteoblast; experiment: Induction of osteoblast differentiation in mouse calvarial osteoblasts cells assessed as ALP activity at 100 to 10000 pM measured for 7 days; format: functional, cell-based; conditions: dose 100-10000 pM, time 7.0 day

Cc1[nH]c2ccc(Cl)cc2c1C1C(C#N)=C(N)Oc2c1cc(-c1nc3ccccc3c(=O)[nH]1)cc2C(C)(C)C (configuration not stated)
Activity [1]: 2%

CCCc1cc(-c2nc3ccccc3c(=O)n2C)cc2c1OC(N)=C(C#N)C2c1c(C)[nH]c2ccc(Cl)cc12 (configuration not stated)
Activity [1]: 12%

CCn1c(-c2cc(C)c3c(c2)CC(C#N)=C(N)O3)nc2ccccc2c1=O
Activity [2]: inactive
Activity [1]: inactive
Activity [3]: inactive

CCCc1cc(-c2nc3ccccc3c(=O)n2C)cc2c1OC(N)=C(C#N)C2c1c(C)[nH]c2ccc(OC)cc12 (configuration not stated)
Activity [1]: 11%
fold change (FC) [4]: 3

CCc1cc(-c2nc3ccccc3c(=O)n2C)cc2c1OC(N)=C(C#N)C2c1c(C)[nH]c2ccc(OC)cc12 (configuration not stated)
Activity [1]: 2%

Cc1[nH]c2ccccc2c1C1C(C#N)=C(N)Oc2c1cc(-c1nc3ccccc3c(=O)[nH]1)cc2C(C)(C)C (configuration not stated)
Activity [1]: inactive

CCc1cc(-c2nc3ccccc3c(=O)n2C)cc2c1OC(N)=C(C#N)C2c1c(C)[nH]c2ccc(Cl)cc12 (configuration not stated)
Activity [1]: 1%

Cc1[nH]c2ccc(Cl)cc2c1C1C(C#N)=C(N)Oc2c1cc(-c1nc3ccccc3c(=O)n1C)cc2C(C)(C)C (configuration not stated)
Activity [1]: 7%

Cc1cc(-c2nc3ccccc3c(=O)n2C)cc2c1OC(N)=C(C#N)C2c1c(C)[nH]c2ccc(Cl)cc12 (configuration not stated)
Activity [5]: Active
Activity [6]: inactive
Activity [1]: 25%
Activity [7]: Toxic
Activity [8]: Non-Toxic
Activity [9]: Active
Activity [10]: inactive

N#CC1=Cc2ccccc2OC1N (configuration not stated)
Activity [1]: 18%

Cc1cc2ccccc2[nH]1
Activity [2]: inactive
Activity [1]: inactive
Activity [11]: inactive
Activity [3]: inactive

CCc1cc(-c2nc3ccccc3c(=O)[nH]2)cc2c1OC(N)=C(C#N)C2c1c(C)[nH]c2ccccc12 (configuration not stated)
Activity [1]: inactive

COc1ccc2[nH]c(C)c(C3C(C#N)=C(N)Oc4c3cc(-c3nc5ccccc5c(=O)n3C)cc4C(C)(C)C)c2c1 (configuration not stated)
Activity [12]: 10%
Activity [5]: Active
Activity [6]: inactive
Activity [1]: 19%
Activity [13]: 20%
Activity [7]: Toxic
Activity [8]: Non-Toxic
Activity [14]: Active
Activity [15]: Active

CCn1c(-c2cc(C)c3c(c2)C(c2c(C)n(C)c4ccccc24)C(C#N)=C(N)O3)nc2ccccc2c1=O (configuration not stated)
Activity [1]: 14%

CCc1cc(-c2nc3ccccc3c(=O)n2CC)cc2c1OC(N)=C(C#N)C2c1c(C)[nH]c2ccccc12 (configuration not stated)
Activity [5]: Active
Activity [6]: inactive
Activity [1]: 38%
Activity [7]: Toxic
Activity [8]: Non-Toxic
Activity [9]: Active
Activity [10]: inactive

Cc1[nH]c2ccc(Cl)cc2c1C1C(C#N)=C(N)Oc2c(C(C)C)cc(-c3nc4ccccc4c(=O)n3C)cc21 (configuration not stated)
Activity [1]: 5%

Reference: ChEMBL document CHEMBL5247581, “Design, synthesis and biological evaluation of new quinazolinone-benzopyran-indole hybrid compounds promoting osteogenesis through BMP2 upregulation” (Eur J Med Chem, 2022)
